Columns and labels:
[1] = system: HLA-A*02:01 transgenic mouse; assay: Test 7: in vivo adjuvant activity, vaccine d (Peptide SEQ ID No. 5), IFNγ ELISPOT; settings: added to vaccine d; 330 ng per body, once; FIG. 4
Method: Evaluation of In Vivo Adjuvant Activity in HLA-A*02:01 Transgenic Mouse
The in vivo adjuvant activity of the compound of Example 1 was evaluated in the following procedure. To a vaccine prepared by mixing Peptide SEQ ID No. 5 prepared in Reference example 5 with Montanide ISA 51 VG (hereinafter, referred to as “vaccine d”) was added the compound prepared in Example 1 to prepare a vaccine. The vaccine was administered to a HLA-A*02:01 transgenic mouse, and the adjuvant activity of the vaccine was evaluated by the method of testing antigen-specific CTL induction. The VLQELNVTV in Peptide SEQ ID No. 5 corresponds to an antigen peptide derived from an HLA-A*02:01-restricted Proteinase-3 protein.
(§1) The character for inducing CTLs specific to the antigen peptide (SEQ ID No. 5) by vaccine d was evaluated by measuring whether IFNγ can be produced upon stimulation of splenocytes from the mouse with the peptide. In addition, the character for exerting in vivo adjuvant activity by the compound in Example 1 was evaluated by comparing the number of CTLs induced by vaccine d and the number of CTLs induced by the vaccine prepared by adding the compound prepared in Example 1 to vaccine d, and checking presence or absence of the increase on the number.
Specifically, Peptide of SEQ ID No. 5 was dissolved in DMSO, and then diluted with water for injection to concentrations of 2 mg/mL. […]

[2] = system: HLA-A*02:01 transgenic mouse; assay: Test 6: in vivo adjuvant activity, vaccine c (Peptide SEQ ID No. 6), IFNγ ELISPOT; settings: added to vaccine c; 0.4 nmol per body, twice; FIG. 3
Method: Test 6 Evaluation of In Vivo Adjuvant Activity in HLA-A*02:01 Transgenic Mouse
The in vivo adjuvant activity of the compound of Example 1 was evaluated in the following procedure. To a vaccine prepared by mixing Peptide SEQ ID No. 6 prepared in Reference example 6 with Montanide ISA 51 VG (hereinafter, referred to as “vaccine c”) was added the compound prepared in Example 1 to prepare a vaccine. The vaccine was administered to a HLA-A*02:01 transgenic mouse, and the adjuvant activity of the vaccine was evaluated by the method of testing antigen-specific CTL induction. The GLYDGMEHL in Peptide SEQ ID No. 6 corresponds to an antigen peptide derived from an HLA-A*02:01-restricted MAGE-A10 protein.
as §1, with “No. 6)” for “No. 5)”, “vaccine c” for “vaccine d”, “vaccine c,” for “vaccine d,”
Specifically, Peptide of SEQ ID No. 6 was dissolved in DMSO, and then diluted with water for injection to concentrations of 0.1 mg/mL. […]

SMILES: CCCCCNc1nc(N)nc(C)c1Cc1ccc(CN(C)CCOCCOCCOCCOCCO)cc1OC [Example 1, 1-(4-{[2-amino-4-methyl-6-(pentylamino)pyrimidin-5-yl]methyl}-3-methoxyphenyl)-2-methyl-5,8,11,14-tetraoxa-2-azahexadecan-16-ol·trifluoroacetate]
- CTL counts responsive to Peptide of SEQ ID No. 5 compared with adding no compound [1]: more
- CTL counts responsive to Peptide SEQ ID No. 6 compared with adding no compound [2]: more

From US12427192B2, “Water soluble adjuvant and composition containing same” (Sumitomo Pharma Co., Ltd., priority 2019, dated 2025)
